Data taken from ChEMBL document CHEMBL5370619, “Targeting the Tyrosine Kinase 2 (TYK2) Pseudokinase Domain: Discovery of the Selective TYK2 Inhibitor ABBV-712” (J Med Chem, 2023).
Values after ≈ are worked out from the molar mass of the structure shown.

What was measured:
[1] = target: Tyrosine-protein kinase JAK1 (Homo sapiens, UniProt P23458); assay: Inhibition of JAK1 in human TF-1 cells assessed as reduction in IL-6 induced STAT3 phosphorylation at Tyr705 residue preincubated for 30 mins followed by IL-6 stimulation and measured after 30 mins by AlphaScreen assay; assay type: cell-based
Tyrosine-protein kinase JAK1, sequence (P23458 whole entry): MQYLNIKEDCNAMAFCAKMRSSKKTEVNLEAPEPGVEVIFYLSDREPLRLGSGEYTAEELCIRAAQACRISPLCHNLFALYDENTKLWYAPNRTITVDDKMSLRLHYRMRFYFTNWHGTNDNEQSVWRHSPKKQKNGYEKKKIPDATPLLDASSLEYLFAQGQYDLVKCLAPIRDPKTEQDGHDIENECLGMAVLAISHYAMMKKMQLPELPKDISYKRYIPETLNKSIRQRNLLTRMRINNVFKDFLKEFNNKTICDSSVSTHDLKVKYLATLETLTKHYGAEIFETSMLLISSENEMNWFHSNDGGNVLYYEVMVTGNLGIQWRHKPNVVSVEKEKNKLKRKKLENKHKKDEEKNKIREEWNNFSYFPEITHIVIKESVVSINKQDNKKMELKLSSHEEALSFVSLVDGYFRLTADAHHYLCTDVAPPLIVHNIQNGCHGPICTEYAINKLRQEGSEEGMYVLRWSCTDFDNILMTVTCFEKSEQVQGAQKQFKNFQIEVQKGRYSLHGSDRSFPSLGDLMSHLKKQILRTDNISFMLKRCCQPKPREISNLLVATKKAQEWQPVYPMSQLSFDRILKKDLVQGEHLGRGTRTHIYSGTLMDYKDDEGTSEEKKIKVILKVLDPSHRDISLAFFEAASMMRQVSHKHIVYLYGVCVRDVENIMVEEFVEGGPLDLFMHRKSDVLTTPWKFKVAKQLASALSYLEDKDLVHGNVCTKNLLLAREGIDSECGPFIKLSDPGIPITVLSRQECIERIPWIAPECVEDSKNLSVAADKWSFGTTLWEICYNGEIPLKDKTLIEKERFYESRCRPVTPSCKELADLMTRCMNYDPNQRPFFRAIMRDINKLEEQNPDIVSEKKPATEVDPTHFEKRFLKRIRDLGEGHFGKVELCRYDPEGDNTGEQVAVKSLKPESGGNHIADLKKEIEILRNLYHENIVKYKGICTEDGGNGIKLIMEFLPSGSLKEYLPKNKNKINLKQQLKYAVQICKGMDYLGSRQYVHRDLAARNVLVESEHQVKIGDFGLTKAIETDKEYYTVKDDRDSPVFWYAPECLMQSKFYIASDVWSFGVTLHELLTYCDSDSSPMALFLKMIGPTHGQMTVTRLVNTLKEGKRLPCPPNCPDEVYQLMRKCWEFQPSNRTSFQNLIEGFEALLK

CYP3A4 [2] = target: T1, CYP3A4 (Homo sapiens, UniProt P08684); assay: Induction of CYP3A4 in human hepatocytes assessed as maximum activation in mRNA level at 10 uM incubated for 24 hrs by RT-qPCR analysis relative to control; assay type: ADME, cell-based, Hepatocyte; conditions: read-out: max activation
T1 sequence (P08684 whole entry): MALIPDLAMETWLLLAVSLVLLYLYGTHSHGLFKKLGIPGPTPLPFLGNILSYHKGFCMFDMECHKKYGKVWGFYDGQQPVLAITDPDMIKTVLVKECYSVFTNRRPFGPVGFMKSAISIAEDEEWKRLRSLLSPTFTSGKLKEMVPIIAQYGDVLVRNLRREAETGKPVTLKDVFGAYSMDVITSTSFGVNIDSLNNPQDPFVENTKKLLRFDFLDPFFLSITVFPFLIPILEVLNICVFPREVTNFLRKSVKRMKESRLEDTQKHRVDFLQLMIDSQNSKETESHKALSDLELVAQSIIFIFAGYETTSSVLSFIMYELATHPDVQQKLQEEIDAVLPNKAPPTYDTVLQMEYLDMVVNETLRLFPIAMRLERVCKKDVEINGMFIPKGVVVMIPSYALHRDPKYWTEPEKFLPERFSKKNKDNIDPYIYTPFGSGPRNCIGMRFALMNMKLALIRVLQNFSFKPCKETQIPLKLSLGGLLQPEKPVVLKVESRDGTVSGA

[3] = In vivo inhibition of TYK2 in po dosed IL-12/IL-18 induced C57/B6 mouse model assessed as reduction in serum IFN-gamma production measured at 1 to 10000 ng/ml of whole blood drug exposure level measured after 30 mins; assay type: functional, organism-based; conditions: C57/B6, 0.5 h
[4] = Metabolic stability in human hepatocytes assessed as intrinsic clearance for unbound fraction of drug; assay type: ADME, cell-based, Hepatocyte
[5] = Thermodynamic solubility in PBS at pH 7.4; assay type: physicochemical; conditions: read-out: Therm_solubility
[6] = Unbound clearance in dog blood at 1 mg/kg, iv; assay type: ADME, organism-based, Canis lupus familiaris; conditions: in vivo
[7] = Oral bioavailability in cynomolgus monkey at 1 mg/kg; assay type: ADME, organism-based, Macaca fascicularis; conditions: in vivo
[8] = AUC (0 to infinity) in dog at 1 mg/kg,po; assay type: ADME, organism-based, Canis lupus familiaris; set-up: dose 1 mg/kg, route po; conditions: in vivo
[9] = In vivo inhibition of TYK2 in IL-12/IL-18 induced C57/B6 mouse model assessed as reduction in serum IFN-gamma production at 300 mg/kg,po pretreated for 30 mins prior to IL-12/IL-18 challenge and measured after 4 hrs by MSD assay; assay type: functional; conditions: C57/B6, 4.5 h, time 270 min
[10] = target: T2, Non-receptor tyrosine-protein kinase TYK2 (Homo sapiens, UniProt P29597); assay: Inhibition of TYK2 in human whole blood assessed as decrease in STAT4 phosphorylation preincubated for 30 mins followed by human IL-23 stimulation and measured after 20 mins by flow cytometry; assay type: tissue-based
T2 sequence (P29597 whole entry): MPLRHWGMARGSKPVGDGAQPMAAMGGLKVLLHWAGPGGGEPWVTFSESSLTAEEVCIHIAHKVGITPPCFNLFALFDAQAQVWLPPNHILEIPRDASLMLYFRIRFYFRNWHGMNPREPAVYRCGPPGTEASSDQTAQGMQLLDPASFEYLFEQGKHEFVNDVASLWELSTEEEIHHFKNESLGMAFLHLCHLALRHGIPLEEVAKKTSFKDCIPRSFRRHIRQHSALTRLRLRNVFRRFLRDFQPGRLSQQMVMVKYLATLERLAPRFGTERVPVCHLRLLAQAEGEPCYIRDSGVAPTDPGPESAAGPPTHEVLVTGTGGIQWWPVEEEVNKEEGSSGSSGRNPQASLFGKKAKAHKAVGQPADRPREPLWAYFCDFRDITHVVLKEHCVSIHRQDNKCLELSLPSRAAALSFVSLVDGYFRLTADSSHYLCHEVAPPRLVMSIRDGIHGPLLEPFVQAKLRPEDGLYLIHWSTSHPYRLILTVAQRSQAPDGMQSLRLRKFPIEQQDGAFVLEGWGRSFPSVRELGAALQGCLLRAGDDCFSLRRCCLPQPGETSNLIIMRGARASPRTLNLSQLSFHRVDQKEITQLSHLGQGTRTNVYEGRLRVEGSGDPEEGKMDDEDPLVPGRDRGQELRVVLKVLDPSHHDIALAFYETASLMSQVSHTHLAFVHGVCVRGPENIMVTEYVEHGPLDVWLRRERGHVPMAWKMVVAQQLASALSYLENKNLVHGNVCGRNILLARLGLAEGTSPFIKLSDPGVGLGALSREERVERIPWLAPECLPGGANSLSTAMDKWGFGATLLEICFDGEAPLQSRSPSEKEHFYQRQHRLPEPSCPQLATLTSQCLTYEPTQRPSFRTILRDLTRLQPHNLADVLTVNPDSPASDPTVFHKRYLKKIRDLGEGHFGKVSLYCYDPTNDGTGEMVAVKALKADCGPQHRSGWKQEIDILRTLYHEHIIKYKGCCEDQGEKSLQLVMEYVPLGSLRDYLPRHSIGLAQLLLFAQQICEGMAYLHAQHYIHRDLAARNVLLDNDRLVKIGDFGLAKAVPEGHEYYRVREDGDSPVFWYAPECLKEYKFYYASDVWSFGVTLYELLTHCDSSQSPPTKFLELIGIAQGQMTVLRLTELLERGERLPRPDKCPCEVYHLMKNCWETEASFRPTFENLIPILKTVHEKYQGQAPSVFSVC

[11] = Metabolic stability in dog hepatocytes assessed as intrinsic clearance for unbound fraction of drug; assay type: ADME, cell-based, Canis lupus familiaris, Hepatocyte
CYP3A4 [12] = target: T1, CYP3A4; assay: Time dependent inhibition of CYP3A4 in human liver microsomes using midazolam as substrate assessed as 1'-OH midazolam metabolite formation at 50 uM preincubated for 30 mins in presence of NADPH followed by substrate addition and measured after 15 mins by HPLC-MS/MS analysis relative to control; assay type: ADME, Microsome; conditions: probe midazolam, time 45 min, read-out: TDI
[13] = In vivo inhibition of TYK2 in IL-12/IL-18 induced C57/B6 mouse model assessed as reduction in serum IFN-gamma production at 600 mg/kg,po pretreated for 30 mins prior to IL-12/IL-18 challenge and measured after 4 hrs by MSD assay; assay type: functional; conditions: C57/B6, 4.5 h, time 270 min
[14] = Oral bioavailability in dog at 1 mg/kg; assay type: ADME, organism-based, Canis lupus familiaris; conditions: in vivo
[15] = target: T3, Tyrosine-protein kinase JAK3 (Homo sapiens, UniProt P52333); assay: Inhibition of JAK3 in human T-blast cells assessed as reduction in IL-2 induced STAT5 phosphorylation preincubated for 30 mins followed by IL-2 stimulation and measured after 20 mins by AlphaScreen assay; assay type: cell-based, T-blast cell
T3 sequence (P52333 whole entry): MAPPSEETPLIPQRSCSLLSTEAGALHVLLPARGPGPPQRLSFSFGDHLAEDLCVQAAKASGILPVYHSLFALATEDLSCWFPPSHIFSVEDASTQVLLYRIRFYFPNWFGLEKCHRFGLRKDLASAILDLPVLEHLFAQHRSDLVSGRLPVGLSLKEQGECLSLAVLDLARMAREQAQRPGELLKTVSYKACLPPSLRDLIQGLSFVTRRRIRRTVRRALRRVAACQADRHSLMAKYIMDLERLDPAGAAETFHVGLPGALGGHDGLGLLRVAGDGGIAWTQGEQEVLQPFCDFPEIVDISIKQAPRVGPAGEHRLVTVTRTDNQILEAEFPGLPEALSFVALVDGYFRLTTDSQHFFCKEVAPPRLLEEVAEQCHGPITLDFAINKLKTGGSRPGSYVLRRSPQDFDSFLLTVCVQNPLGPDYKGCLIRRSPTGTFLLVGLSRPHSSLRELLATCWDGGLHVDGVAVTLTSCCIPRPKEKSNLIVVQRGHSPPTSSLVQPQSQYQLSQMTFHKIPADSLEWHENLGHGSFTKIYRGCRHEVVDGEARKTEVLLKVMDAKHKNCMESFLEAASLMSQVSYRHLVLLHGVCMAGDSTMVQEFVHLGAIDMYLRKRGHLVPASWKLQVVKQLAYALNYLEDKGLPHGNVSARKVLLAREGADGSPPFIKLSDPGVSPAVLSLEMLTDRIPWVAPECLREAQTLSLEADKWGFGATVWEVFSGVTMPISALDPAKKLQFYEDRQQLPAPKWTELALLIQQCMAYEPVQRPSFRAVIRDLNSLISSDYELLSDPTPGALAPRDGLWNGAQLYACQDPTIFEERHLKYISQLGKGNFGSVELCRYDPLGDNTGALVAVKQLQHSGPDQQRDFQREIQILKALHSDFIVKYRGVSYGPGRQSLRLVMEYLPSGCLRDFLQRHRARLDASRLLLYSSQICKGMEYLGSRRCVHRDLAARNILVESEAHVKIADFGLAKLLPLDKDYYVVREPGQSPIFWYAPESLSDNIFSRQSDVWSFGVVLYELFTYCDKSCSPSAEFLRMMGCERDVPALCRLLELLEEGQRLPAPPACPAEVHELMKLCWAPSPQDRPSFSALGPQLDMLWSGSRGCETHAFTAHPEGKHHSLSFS

[16] = Oral bioavailability in rat at 1 mg/kg; assay type: ADME, organism-based; conditions: in vivo
[17] = Half life in rat at 1 mg/kg, iv or 1 mg/kg,po; assay type: ADME, organism-based; conditions: in vivo
[18] = target: Tyrosine-protein kinase JAK2 (Homo sapiens, UniProt O60674); assay: Inhibition of JAK2 in human UT7 cells assessed as reduction in erythropoietin induced STAT5 phosphorylation preincubated for 30 mins followed by erythropoietin stimulation and measured after 20 mins by AlphaScreen assay; assay type: cell-based
Tyrosine-protein kinase JAK2, sequence (O60674 whole entry): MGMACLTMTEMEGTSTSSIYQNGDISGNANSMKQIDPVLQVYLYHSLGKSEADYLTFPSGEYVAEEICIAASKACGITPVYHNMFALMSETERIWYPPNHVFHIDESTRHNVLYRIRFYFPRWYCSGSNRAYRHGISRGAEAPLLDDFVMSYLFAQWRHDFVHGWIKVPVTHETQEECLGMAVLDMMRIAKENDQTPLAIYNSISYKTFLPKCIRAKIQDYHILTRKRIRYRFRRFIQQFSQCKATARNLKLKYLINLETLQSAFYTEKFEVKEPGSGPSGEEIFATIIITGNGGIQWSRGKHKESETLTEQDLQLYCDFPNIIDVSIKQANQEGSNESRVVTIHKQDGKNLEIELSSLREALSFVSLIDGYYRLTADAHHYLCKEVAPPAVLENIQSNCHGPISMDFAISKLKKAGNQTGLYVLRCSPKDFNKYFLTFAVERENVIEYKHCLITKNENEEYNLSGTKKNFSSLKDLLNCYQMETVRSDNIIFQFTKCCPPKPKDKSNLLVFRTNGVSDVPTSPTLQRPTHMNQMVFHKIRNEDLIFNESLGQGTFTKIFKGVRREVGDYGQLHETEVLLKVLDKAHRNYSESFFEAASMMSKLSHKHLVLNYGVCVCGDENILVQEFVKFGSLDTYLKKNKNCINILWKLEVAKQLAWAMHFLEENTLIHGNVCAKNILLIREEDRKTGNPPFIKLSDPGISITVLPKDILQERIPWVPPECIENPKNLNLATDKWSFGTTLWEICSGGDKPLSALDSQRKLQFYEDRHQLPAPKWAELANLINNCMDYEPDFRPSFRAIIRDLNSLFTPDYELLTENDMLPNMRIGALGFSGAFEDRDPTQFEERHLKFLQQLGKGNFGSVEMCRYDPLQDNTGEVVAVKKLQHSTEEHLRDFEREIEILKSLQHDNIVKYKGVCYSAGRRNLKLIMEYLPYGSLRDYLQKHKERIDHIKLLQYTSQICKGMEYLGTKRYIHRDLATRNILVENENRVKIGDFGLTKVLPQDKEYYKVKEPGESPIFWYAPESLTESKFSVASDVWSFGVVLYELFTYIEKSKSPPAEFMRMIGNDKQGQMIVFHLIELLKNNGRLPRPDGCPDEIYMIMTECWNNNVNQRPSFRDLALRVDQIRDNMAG

Mus musculus [19] = assay: Anti-inflammatory activity in po dosed B10.RII mouse model of mouse IL-23 mini circle induced psoriasiform dermatitis assessed as decrease in ear thickness measured at 101 to 10000 ng/ml of whole blood drug exposure level measured after 30 mins; assay type: functional, organism-based; conditions: 0.5 h
[20] = Half life in dog at 1 mg/kg, iv; assay type: ADME, organism-based, Canis lupus familiaris; conditions: in vivo
[21] = target: T2, Non-receptor tyrosine-protein kinase TYK2; assay: Inhibition of TYK2 in human T-blast cells assessed as IL-12 induced STAT4 phosphorylation at Tyr694 residue preincubated for 30 mins followed by IL-12 stimulation and measured after 20 mins by AlphaScreen assay; assay type: cell-based, T-blast cell
[22] = Metabolic stability in monkey hepatocytes assessed as intrinsic clearance for unbound fraction of drug; assay type: ADME, cell-based, Macaca mulatta, Hepatocyte; conditions: rhesus monkey
[23] = Volume of distribution at steady state in rat at 1 mg/kg, iv or 1 mg/kg,po; assay type: ADME, organism-based; conditions: in vivo, read-out: Vdss
Mus musculus [24] = assay: Anti-inflammatory activity in B10.RII mouse model of mouse IL-23 mini circle induced psoriasiform dermatitis assessed as decrease in ear thickness at 100 mg/kg,po QD for 5 days by caliper analysis; assay type: functional; set-up: scale not given: the % may be the effect or the level left; conditions: time 5 day

With COCc1cc(-c2cn(C3COC3)c3cnc(NC(C)=O)cc23)nc([C@]2(OC)CCOC2)c1 the EC50 [1] was over 20000 nM, the Emax at 24 h, 10 µM (CYP3A4 [2]) was 2% and the IC50 [3] was 3.08 µg/mL (≈ 6.81 µM). The CL free [4] was 31.7 mL/min/kg, the solubility thermodynamic [5] was 708 µM (≈ 320 µg/mL) and the CL free [6] was 7.67 mL/min/kg. The bioavailability [7] was 17%, the AUC(0-inf) [8] was 2300 ng·h/mL and the inhibition in vivo at 300 mg/kg [9] was 95%. For the same compound, the EC50 [10] was 160 nM, the CL free [11] was 21.7 mL/min/kg and the inhibition at 0.25 h, 50 µM (CYP3A4 [12]) was 22%. It also gave an inhibition in vivo at 600 mg/kg [13] of 99%, a bioavailability [14] of 88% and an EC50 [15] of over 20000 nM. It also gave a bioavailability [16] of 19%, a half-life [17] of 0.6 h and an EC50 [18] of over 20000 nM. For the same compound, the EC50 (Mus musculus [19]) was 0.3 µg/mL (≈ 0.663 µM), the half-life [20] was 4.5 h and the EC50 [21] was 195 nM. For the same compound, the CL free [22] was 45 mL/min/kg, the Vd [23] was 1.9 L/kg and the Activity (Mus musculus [24]) was 58%.
